Assay results as given in PubChem BioAssay (NCI).
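Cells were grown in 96-well plates and exposed to each compound for 48 hours at five concentrations; endpoints were interpolated linearly between bracketing concentrations, or set to the highest concentration if not reached. GI50 is the concentration that inhibits growth by half. Definition used: TGI = concentration required for complete inhibition of growth.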

Legend:
Experiment in all cases: NCI-60 cell line screen, 48 h
[1] = system: 786-0 renal
[2] = system: A549 NSCLC
[3] = system: ACHN renal
[4] = system: BT-549 breast
[5] = system: CAKI-1 renal
[6] = system: CCRF-CEM leukemia
[7] = system: COLO 205 colon
[8] = system: DU-145 prostate
[9] = system: EKVX NSCLC
[10] = system: HCT-116 colon
[11] = system: HCT-15 colon
[12] = system: HL-60(TB) leukemia
[13] = system: HOP-62 NSCLC
[14] = system: HOP-92 NSCLC
[15] = system: HS 578T breast
[16] = system: HT29 colon
[17] = system: IGROV1 ovarian
[18] = system: KM12 colon
[19] = system: LOX IMVI melanoma
[20] = system: M14 melanoma
[21] = system: MALME-3M melanoma
[22] = system: MCF7 breast
[23] = system: MDA-MB-231 breast
[24] = system: MDA-MB-435
[25] = system: MOLT-4 leukemia
[26] = system: NCI-H226 lung
[27] = system: NCI-H23 lung
[28] = system: NCI-H460 lung
[29] = system: NCI-H522 lung
[30] = system: NCI/ADR-RES ovarian
[31] = system: OVCAR-3 ovarian
[32] = system: OVCAR-4 ovarian
[33] = system: OVCAR-5 ovarian
[34] = system: OVCAR-8 ovarian
[35] = system: PC-3 prostate
[36] = system: RPMI-8226 leukemia
[37] = system: RXF 393 renal
[38] = system: SF-268 CNS
[39] = system: SF-295 CNS
[40] = system: SK-MEL-2 melanoma
[41] = system: SK-MEL-28 melanoma
[42] = system: SK-MEL-5 melanoma
[43] = system: SK-OV-3 ovarian
[44] = system: SNB-19 CNS
[45] = system: SW-620 colon
[46] = system: T-47D breast
[47] = system: TK-10 renal
[48] = system: U251 CNS
[49] = system: UACC-257 melanoma
[50] = system: UACC-62 melanoma
[51] = system: UO-31 renal

## COc1ccc2c(c1)/C(=C\c1c(Cl)[nH]c3ccc(OC)cc13)C(=O)N2
[1]
  GI50: 43.7 µM
  TGI: > 100 µM
[2]
  GI50: 65.1 µM
  TGI: > 100 µM
[3]
  GI50: 43.3 µM
  TGI: > 100 µM
[4]
  GI50: 28.8 µM
  TGI: > 100 µM
[5]
  GI50: > 100 µM
  TGI: > 100 µM
[6]
  GI50: 32.5 µM
  TGI: > 100 µM
[7]
  GI50: 18.9 µM
  TGI: 39.8 µM
[8]
  GI50: > 100 µM
  TGI: > 100 µM
[9]
  GI50: 84.7 µM
  TGI: > 100 µM
[10]
  GI50: 16.3 µM
  TGI: 30.6 µM
[11]
  GI50: > 100 µM
  TGI: > 100 µM
[12]
  GI50: 26.9 µM
  TGI: 67.3 µM
[13]
  GI50: 32.6 µM
  TGI: 95.2 µM
[14]
  GI50: 61.7 µM
  TGI: > 100 µM
[15]
  GI50: 29.9 µM
  TGI: 81.2 µM
[16]
  GI50: 21.4 µM
  TGI: > 100 µM
[17]
  GI50: 56.9 µM
  TGI: > 100 µM
[18]
  GI50: 17.5 µM
  TGI: 34.9 µM
[19]
  GI50: 25.8 µM
  TGI: 54.3 µM
[20]
  GI50: 21.9 µM
  TGI: 39.8 µM
[21]
  GI50: 21 µM
  TGI: 44.1 µM
[22]
  GI50: 44.9 µM
  TGI: > 100 µM
[23]
  GI50: 27.8 µM
  TGI: 75.2 µM
[24]
  GI50: 33.7 µM
  TGI: > 100 µM
[25]
  GI50: 46.9 µM
  TGI: > 100 µM
[26]
  GI50: 41.9 µM
  TGI: > 100 µM
[27]
  GI50: > 100 µM
  TGI: > 100 µM
[28]
  GI50: 50.7 µM
  TGI: > 100 µM
[29]
  GI50: 26.8 µM
  TGI: 74.4 µM
[30]
  GI50: > 100 µM
  TGI: > 100 µM
[31]
  GI50: 29.4 µM
  TGI: > 100 µM
[32]
  GI50: 41.8 µM
  TGI: > 100 µM
[33]
  GI50: 77.3 µM
  TGI: > 100 µM
[34]
  GI50: 34.1 µM
  TGI: > 100 µM
[35]
  GI50: 48.9 µM
  TGI: > 100 µM
[36]
  GI50: 33.3 µM
  TGI: > 100 µM
[37]
  GI50: > 100 µM
  TGI: > 100 µM
[38]
  GI50: 61.2 µM
  TGI: > 100 µM
[39]
  GI50: 19.9 µM
  TGI: 45.8 µM
[40]
  GI50: 25.8 µM
  TGI: 62.8 µM
[41]
  GI50: 15.9 µM
  TGI: 40.4 µM
[42]
  TGI: 25.3 µM
[43]
  GI50: 41.9 µM
  TGI: > 100 µM
[44]
  GI50: 20.6 µM
  TGI: 64.1 µM
[45]
  GI50: 20 µM
  TGI: 48.9 µM
[46]
  GI50: 13 µM
  TGI: 32 µM
[47]
  GI50: 44 µM
  TGI: > 100 µM
[48]
  GI50: 19.7 µM
  TGI: 43.8 µM
[49]
  GI50: 37.3 µM
  TGI: > 100 µM
[50]
  GI50: 35.2 µM
  TGI: > 100 µM
[51]
  GI50: 87.1 µM
  TGI: > 100 µM
